Results from US20160206633A1, “dhS1P AND USE OF SAME AS AN ANTICANCER THERAPEUTIC AND IMMUNOMODULATOR” (Penn State Research Foundation, Inc., priority 2013, published 2016).

Key:
[1] = system: splenic IMCs (Gr-1+CD11b+, MDSCs) from MDA-MB-231 tumor-bearing athymic nude mice; test: Isolated IMCs/MDSCs exposed in culture to dhS1P or S1P, multicolor flow cytometry; assay type: cell-based; settings: 5 μM, 24-hour culture
Protocol: (§1) (A) Splenic IMCs (Gr-1+CD11b+, also defined as MDSCs: myeloid-derived suppressor cells) were isolated from MDA-MB-231 tumor-bearing athymic nude mice and exposed to BSA, S1P (5 μM), or dhS1P (5 μM). Following 24-hour culture incubation, cells were labeled with specific antibodies and analyzed by multicolor flow cytometry (red: IMCs; blue: possible B-cells). (B) Splenic IMCs were isolated from MDA-MB-231 tumor-bearing athymic nude mice and cultured (5×10^4 cells/mL) in GEMM-supportive semi-solid media with BSA, S1P (5 μM), or dhS1P (5 μM). GEMM colonies (multipotent myeloid progenitor cells) were visualized and counted after 3 weeks of culture. ANOVA, *p<0.01 compared to no treatment or BSA-treatment, ***p<0.001 compared to S1P-treatment, n≧3. (C) Splenic hematopoietic progenitors (Lineage-Sca-1+CD117+) were isolated from MDA-MB-231 tumor-bearing athymic nude mice and exposed to BSA, S1P (5 μM), or dhS1P (5 μM). Following 24-hour culture incubation, cells were labeled with specific antibodies and analyzed by multicolor flow cytometry.
The effect of dhS1P was further investigated at the level of MDSC-like cells, which were reduced as a function of treatment. The effects of dhS1P were directly compared with those of S1P as to delineate a difference in their physiological roles. Tumor-expanded IMCs/MDSCs were isolated and exposed in culture to either dhS1P or S1P. […]

[2] = system: isolated IMCs (GEMM colonies, multipotent myeloid progenitor cells); test: CFU-GEMM colony forming assay of isolated IMCs; assay type: cell-based, athymic nude mice; settings: 5 μM, GEMM-supportive semi-solid media, 3 weeks of culture
Protocol: as §1, with “cytometry. […]” for “cytometry.”
Isolated IMCs from the spleens of tumor-bearing athymic nude mice were cultured (5×10^4 cells/mL) in GEMM-supportive complete (mouse) methylcellulose media (R&D Systems, Minneapolis, Minn.), according to the manufacturer's instructions, with BSA, S1P (5 μM), or dhS1P (5 μM). GEMM colonies were visualized and counted after 3 weeks of culture.

SMILES: CCCCCCCCCCCCCCC[C@@H](O)[C@@H](N)COP(=O)(O)O [dhS1P, dihydrosphingosine-1-phosphate]
- Population of cells displaying CD19 and CD45R B220 in isolated IMC culture [1]: promoted the expansion
- Cells bearing the surface characteristics of IMCs/MDSCs (Gr-1+CD11b+) ([1]; normal culture conditions): completely ablated
- CFU-GEMM colony formation [2]: completely abrogated
